Source: ChEMBL document CHEMBL5724914, “Linking interpersonal differences in gut microbiota composition and drug biotransformation activity” (2024)

What was measured:
[1] = (§1) The drug is tested on Z-026 corresponding to metagenome with ENA study accession number: PRJEB37062 and ENA sample accession number: ERS12561825 for biotransformation under anaerobic condition. The drug concentrations were measured over 9 timepoints collected between 0 and 24 hours of incubation by liquid-chromatography-coupled mass spectrometry (LC–MS); settings: 2 µM
[2] = (§2) The drug is tested on Z-024 corresponding to pig gut metagenome with ENA study accession number: PRJEB37062 and ENA sample accession number: ERS12561823 for biotransformation under anaerobic condition. The drug concentrations were measured over 9 timepoints collected between 0 and 24 hours of incubation by liquid-chromatography-coupled mass spectrometry (LC–MS); settings: 2 µM
[3] = as §1, with “Z-023” for “Z-026”, “ERS12561822” for “ERS12561825”; settings: 2 µM
[4] = as §1, with “Z-021” for “Z-026”, “ERS12561820” for “ERS12561825”; settings: 2 µM
[5] = as §2, with “Z-016” for “Z-024”, “mouse” for “pig”, “ERS12561815” for “ERS12561823”; settings: 2 µM
[6] = as §2, with “Z-013” for “Z-024”, “rabbit” for “pig”, “ERS12561813” for “ERS12561823”; settings: 2 µM
[7] = as §2, with “Z-009” for “Z-024”, “ERS12561809” for “ERS12561823”; settings: 2 µM
[8] = as §1, with “Z-008” for “Z-026”, “ERS12561808” for “ERS12561825”; settings: 2 µM
[9] = as §2, with “Z-003” for “Z-024”, “ERS12561803” for “ERS12561823”; settings: 2 µM
[10] = as §2, with “WLS-090” for “Z-024”, “human” for “pig”, “ERS12561753” for “ERS12561823”; settings: 2 µM
[11] = as §2, with “WLS-073” for “Z-024”, “human” for “pig”, “ERS12561749” for “ERS12561823”; settings: 2 µM
[12] = human gut metagenome, 24 h, 2 µM
[13] = human gut metagenome, 24 h, 2 µM; remark: listed apart in the source
[14] = human gut metagenome, 24 h, 2 µM; remark: listed apart in the source
[15] = human gut metagenome, 24 h, 2 µM; remark: listed apart in the source
[16] = human gut metagenome, 24 h, 2 µM; remark: listed apart in the source
[17] = human gut metagenome, 24 h, 2 µM; remark: listed apart in the source
[18] = human gut metagenome, 24 h, 2 µM; remark: listed apart in the source
[19] = human gut metagenome, 24 h, 2 µM; remark: listed apart in the source
[20] = human gut metagenome, 24 h, 2 µM; remark: listed apart in the source
Further: call rule not given here.

Bacterial Biotransformation [1]	Bacterial Biotransformation [2]	Bacterial Biotransformation [3]	Bacterial Biotransformation [4]	Bacterial Biotransformation [5]	Bacterial Biotransformation [6]	Bacterial Biotransformation [7]	Bacterial Biotransformation [8]	Bacterial Biotransformation [9]	Bacterial Biotransformation [10]	Bacterial Biotransformation [11]	Bacterial Biotransformation [12]	Bacterial Biotransformation [13]	Bacterial Biotransformation [14]	Bacterial Biotransformation [15]	Bacterial Biotransformation [16]	Bacterial Biotransformation [17]	Bacterial Biotransformation [18]	Bacterial Biotransformation [19]	Bacterial Biotransformation [20]	SMILES
Compound NOT metabolized	Compound NOT metabolized	Compound NOT metabolized	Compound NOT metabolized	Compound NOT metabolized	Compound NOT metabolized	Compound NOT metabolized	Compound NOT metabolized	Compound NOT metabolized	Compound metabolized	Compound metabolized	Compound NOT metabolized	Compound metabolized	Compound NOT metabolized	Compound metabolized	Compound metabolized	Compound metabolized	Compound NOT metabolized	Compound metabolized	Compound NOT metabolized	C#C[C@]1(OC(C)=O)CC[C@H]2[C@@H]3CCC4=C/C(=N/O)CC[C@@H]4[C@H]3CC[C@@]21CC [NORGESTIMATE]
Compound metabolized	Compound metabolized	Compound metabolized	Compound metabolized	Compound metabolized	Compound metabolized	Compound NOT metabolized	Compound metabolized	Compound NOT metabolized	Compound metabolized	Compound metabolized	Compound metabolized	Compound metabolized	Compound metabolized	Compound metabolized	Compound metabolized	Compound metabolized	Compound metabolized	Compound metabolized	Compound metabolized	COc1ccnc(C[S+]([O-])c2nc3ccc(OC(F)F)cc3[nH]2)c1OC (stereo not given) [PANTOPRAZOLE]
Compound NOT metabolized	Compound NOT metabolized	Compound NOT metabolized	Compound NOT metabolized	Compound NOT metabolized	Compound NOT metabolized	Compound NOT metabolized	Compound NOT metabolized	Compound NOT metabolized	Compound metabolized	Compound NOT metabolized	Compound NOT metabolized	Compound metabolized	Compound NOT metabolized	Compound metabolized	Compound metabolized	Compound metabolized	Compound NOT metabolized	Compound metabolized	Compound metabolized	CN(CCOc1ccc(CC2SC(=O)NC2=O)cc1)c1ccccn1.O=C(O)/C=C\C(=O)O (stereo not given) [ROSIGLITAZONE MALEATE]
Compound NOT metabolized	Compound NOT metabolized	Compound NOT metabolized	Compound NOT metabolized	Compound NOT metabolized	Compound NOT metabolized	Compound NOT metabolized	Compound NOT metabolized	Compound NOT metabolized	Compound metabolized	Compound NOT metabolized	Compound metabolized	Compound metabolized	Compound metabolized	Compound metabolized	Compound NOT metabolized	Compound NOT metabolized	Compound NOT metabolized	Compound NOT metabolized	Compound metabolized	CC(C)c1nc(N(C)S(C)(=O)=O)nc(-c2ccc(F)cc2)c1/C=C/[C@@H](O)C[C@@H](O)CC(=O)[O-].CC(C)c1nc(N(C)S(C)(=O)=O)nc(-c2ccc(F)cc2)c1/C=C/[C@@H](O)C[C@@H](O)CC(=O)[O-].[Ca+2] [ROSUVASTATIN CALCIUM]
Compound metabolized	Compound metabolized	Compound metabolized	Compound metabolized	Compound metabolized	Compound metabolized	Compound metabolized	Compound metabolized	Compound metabolized	Compound metabolized	Compound metabolized	Compound metabolized	Compound metabolized	Compound metabolized	Compound metabolized	Compound metabolized	Compound metabolized	Compound metabolized	Compound metabolized	Compound metabolized	O=C(O)c1cc(/N=N/c2ccc(S(=O)(=O)Nc3ccccn3)cc2)ccc1O [SULFASALAZINE]
Compound NOT metabolized	Compound NOT metabolized	Compound NOT metabolized	Compound NOT metabolized	Compound NOT metabolized	Compound NOT metabolized	Compound NOT metabolized	Compound NOT metabolized	Compound metabolized	Compound metabolized	Compound metabolized	Compound NOT metabolized	Compound NOT metabolized	Compound metabolized	Compound metabolized	Compound metabolized	Compound metabolized	Compound metabolized	Compound metabolized	Compound metabolized	C=CC[C@@H]1/C=C(\C)C[C@H](C)C[C@H](OC)[C@H]2O[C@@](O)(C(=O)C(=O)N3CCCC[C@H]3C(=O)O[C@H](/C(C)=C/[C@@H]3CC[C@@H](O)[C@H](OC)C3)[C@H](C)[C@@H](O)CC1=O)[C@H](C)C[C@@H]2OC.O [TACROLIMUS]
Compound metabolized	Compound metabolized	Compound metabolized	Compound metabolized	Compound metabolized	Compound metabolized	Compound metabolized	Compound metabolized	Compound metabolized	Compound metabolized	Compound metabolized	Compound metabolized	Compound metabolized	Compound metabolized	Compound metabolized	Compound metabolized	Compound metabolized	Compound metabolized	Compound metabolized	Compound metabolized	CCS(=O)(=O)CCn1c([N+](=O)[O-])cnc1C [TINIDAZOLE]
